≈ marks a conversion by molar mass, not a printed value.
How the values were obtained:
Escherichia coli 29 = assay: In vitro antibacterial activity (MIC) by two-fold agar-plate dilution method, Escherichia coli 29; assay type: cell-based; conditions: heart infusion agar, 37° C., 20 hours, read-out: MIC (minimal inhibitory concentration)
Procedure: (§1) In vitro antibacterial activity was determined by the two-fold agar-plate dilution method as described below.
(§2) One loopful of an overnight culture of each test strain in Trypticase-soy broth (10^8 viable cells per ml) was streaked on heart infusion agar HI-agar) containing graded concentrations of representative test compound, and the minimal inhibitory concentration (MIC) was expressed in terms of μg/ml after incubation at 37° C. for 20 hours.

[1] = tested on: Proteus vulgaris IAM 1025; assay: In vitro antibacterial activity (MIC) by two-fold agar-plate dilution method, Proteus vulgaris IAM 1025; assay type: cell-based; conditions: IAM1025, heart infusion agar, 37° C., 20 hours, read-out: MIC (minimal inhibitory concentration)
Procedure: as §1, §2

Compound | MIC (Escherichia coli 29) | MIC [1]
Cc1nsc(SCC2=C(C(=O)O)N3C(=O)C(NC(=O)/C(=N\OC(F)F)c4csc(N)n4)C3SC2)n1 (stereo not drawn) [Test Compound (2), 7-[2-(2-Aminothiazol-4-yl)-2-difluoromethoxyiminoacetamido]-3-(3-methyl-1,2,4-thiadiazol-5-yl)thiomethyl-3-cephem-4-carboxylic acid] | 0.2 µg/mL (≈ 0.355 µM) | 0.05 µg/mL (≈ 0.0887 µM)
Nc1nc(/C(=N/OC(F)F)C(=O)NC2C(=O)N3C(C(=O)O)=C(CSc4ncns4)CSC23)cs1 (stereo not drawn) [Test Compound (3), 7-[2-(2-Aminothiazol-4-yl)-2-difluoromethoxyiminoacetamido]-3-(1,2,4-thiadiazol-5-yl)thiomethyl-3-cephem-4-carboxylic acid] | 0.1 µg/mL (≈ 0.182 µM) | ≤ 0.025 µg/mL
Cc1ccc[n+](CC2=C(C(=O)[O-])N3C(=O)C(NC(=O)/C(=N\OC(F)F)c4csc(N)n4)C3SC2)c1 (stereo not drawn) [Test Compound (1), 7-[2-(2-Aminothiazol-4-yl)-2-difluoromethoxyiminoacetamido]-3-(3-methyl-1-pyridiniomethyl)-3-cephem-4-carboxylate] | ≤ 0.025 µg/mL | ≤ 0.025 µg/mL
